Measured values taken from patent US10786474B2, “Pharmaceutical suspensions containing drug particles, devices for their administration, and methods of their use” (SynAgile Corporation, priority 2015, dated 2020).
≈ marks a conversion by molar mass, not a printed value. Where “and” joins values, the source holds several entries; their conditions need not be identical. Equal entries are not always repeated. Where two headings read alike, the source gives them in different places.

How the values were obtained:
[1] = extended release tablets; various studies; cited from earlier work
[2] = in vivo; cited from earlier work
[3] = assumed for dissolution of orally delivered solid LD in saliva; cited from earlier work
Solubility of LD = format: physicochemical; conditions: citrate buffered solution of about pH 4.5, 25° C.
Description: LD is poorly soluble in most non-toxic solvents, including water and alcohols. […] LD is even less soluble in alcohols. To deliver a typical daily dose of 1,000 mg approximately 150 mL of saturated LD aqueous solution would be required, which is incompatible with the volume requirements for a drug delivery device placed in the mouth.

Row | Structure (SMILES) | Fluctuation Index [1] | crossing of the blood-brain barrier [2] | plasma half-life [2] | also measured
1 | NC(=O)N1c2ccccc2C=Cc2ccccc21 [Carbamazepine] | 0.31 and 0.26 and 0.47 and 0.49 |  |  | 
2 | CCN(CC)C(=O)/C(C#N)=C/c1cc(O)c(O)c([N+](=O)[O-])c1 [Entacapone] |  | does not cross the blood-brain barrier | 0.4 to 0.7 h | physiological half-life [2]: less than 1 hour
3 | N[C@@H](Cc1ccc(O)c(O)c1)C(=O)O [LD, levodopa] |  |  |  | solubility [3]: about 50 mg/mL; solubility (Solubility of LD; aqueous buffer, read-out: solubility): ~34 mM (≈ 6700 µg/mL); solubility (Solubility of LD): about 0.68 g/100 mL
4 | CC[C@@H](C(N)=O)N1CCCC1=O [Levetiracetam] | 1.19 and 1.27 |  |  | 
5 | Cc1ccc(C(=O)c2cc(O)c(O)c([N+](=O)[O-])c2)cc1 [Tolcapone] |  | crosses the barrier | 2 to 3 h | hepatotoxicity [2]: limited by its hepatotoxicity
